The values below come from US20090093374A1, “METHOD OF ARRAYING CELLS AT SINGLE-CELL LEVEL INSIDE MI[…] AND METHOD OF ANALYSING CELLS USING THE SAME, AND CELL ANALYSIS CHIP USED FOR CARRYING OUT THE SAME” (priority 2007, published 2009).

The test system of experiment [1] is a-type yeast cell. Description: GFP expression of yeast cells arrayed in deep rectangular microwells, α-factor introduced after arraying and cleaning (Embodiment 2). Conditions: FIG. 15. In kind it is cell-based, Saccharomyces cerevisiae. The source says: (§1) For example, to obtain information with regard to a mating of the yeast cell, a pheromone, e.g., so-called α-factor, may be injected into the fluidic channel as the analysis reagent. If an a-type yeast cell is used as the cell, it is preferable that a pheromone of which a sequence is TRP-HIS-TRP-LEU-GLN-LEU-LYS-PRO-GLY-GLN-PRO-MET-TYR, is used as α-factor. In a subsequent operation, when analyzing responses, it is possible to obtain information with regard to whether or not a protein related to the mating is created in a corresponding cell, and the amount of the protein.
(§2) For instance, in the case where the yeast cell is treated with α-factor, it is possible to observe whether or not a protein related to the mating is created and the amount of the protein through the expression intensity of a green fluorescent protein (GFP) with a time. Moreover, in the case where the yeast cell is treated with KCl, it is possible to find out the creation amount of corresponding proteins through a red fluorescent protein (RFP), and also analyze the response of the corresponding yeast cell upon the external stress.
An a-type yeast cell solution using YPD medium was introduced into a fluidic channel. The introduced cell solution was filled into the fluidic channel through a capillary flow. After that, the inlet was sealed with a tape so that the cell solution was evaporated through an outlet. Accordingly, a receding meniscus was generated, thereby allowing the cells to be arrayed in the well structures at a single-cell level.
Afterwards, a cleaning solution containing amino acid, nitrogen, glucose, etc was introduced through the capillary flow caused by a surface tension, residual cells remaining at a side of the inlet were cleaned. At this time, a tissue paper was placed in the outlet to absorb and remove the residual cells and the cleaning solution.
After the residual cells are completely cleaned, […] was also introduced into the microfluidic channel by the capillary flow caused by the surface tension. […]

For experiment [2], the system named is a-type yeast cell. As to the kind of experiment: GFP expression of yeast cells arrayed in shallow rectangular microwells, cell solution pre-treated with α-factor (Embodiment 1). The format is cell-based, Saccharomyces cerevisiae. Conditions: FIG. 14.
Excerpt: as §1, §2
A mixed solution in which a-type yeast cell solution using yeast extract peptone dextrose (YPD) medium had been pre-treated with α-factor, e.g., pheromone having a sequence of TRP-HIS-TRP-LEU-GLN-LEU-LYS-PRO-GLY-GLN-PRO-MET-TYR, was introduced into a fluidic channel through an inlet. The introduced mixed solution filled the fluidic channel through a capillary flow.
After that, the inlet was sealed with a tape so that the mixed solution was evaporated through an outlet. Accordingly, a receding meniscus was generated, allowing the cells to be arrayed in the well structures at a single-cell level. At this time, it took about 10 minutes for the cells to be arrayed while the meniscus was receding.
FIG. 14 is a micrograph showing GFP expression of a yeast cell with respect to α-factor according as a time elapses using the fluidic channel. […]

Setting [3] is: 30 minutes after α-factor treatment.
Where [4] appears, read: 60 minutes after α-factor treatment.
[5] abbreviates: 120 minutes after α-factor treatment (versus 60 minutes).

With “TRP-HIS-TRP-LEU-GLN-LEU-LYS-PRO-GLY-GLN-PRO-MET-TYR (WHWLQLKPGQPMY; printed: TRP-HIS-TRP-LEU-GLN-LEU-LYS-PRO-GLY-GLN-PRO-MET-TYR) [α-factor, pheromone used as analysis reagent for mating response of a-type yeast cell]”, the GFP expression entry in experiment [1] (setting [3]) is recorded as “cannot be observed yet”; in experiment [1] (setting [4]) it was “observed to be bright”; in experiment [2] (setting [3]), “cannot be observed yet”; in experiment [2] (setting [4]), “observed to be bright”. Moreover, the GFP expression intensity entry in experiment [1] (setting [5]) and in experiment [2] (setting [5]) was “does not vary” each time.
